In patent US20110136867A1, “Treatment of Synucleinopathies” (priority 2006, published 2011):
“Also recorded” adds a separate entry of the source.

Experiments:
[1] = system: α-synuclein; assay: α-synuclein accumulation in SH-SY5Y cells infected with α-synuclein-expressing adenovirus (Western blotting, normalized against actin); type: cell-based
Procedure: Western Blotting: Following transfer of SDS gels onto NC membrane, all membranes were blocked with 5% non-fat milk in TBST (50 mM Tris-HCl pH7.4, 150 mM NaCl, 0.1% Tween 20), and incubated with primary antibody overnight with 1% BSA in TBST, washed three times with TBST, and incubated with horseradish peroxidase-conjugated secondary antibody for 1 hour (Promega). Bound antibodies were detected using enhanced chemiluminascence (NEM).
Since α-synuclein neurotoxicity is dose-dependent, it follows that accumulation of α-synuclein, caused by UCH-L1 farnesylation, should promote its toxicity. […] These cells express high endogenous levels of UCH-L1. […] The unit of y-axis is 10^5 /ml. (F) Cell viability was assessed by the amount of metabolic activity using MTT assay. […] The effect of FTI-277 on the α-synuclein accumulation in the SH-SY5Y infected with α-synuclein-expressing adenovirus were analyzed by Western blotting (B) and the amount of α-synuclein (C) was quantified using NIH Image program and normalized against the amount of actin.

[2] = system: UCH-L1; assay: Total amount and turnover of UCH-L1 in SH-SY5Y cells (pulse-chase); type: cell-based
[3] = system: SH-SY5Y cells overexpressing α-synuclein; assay: α-synuclein toxicity in SH-SY5Y cells infected by α-synuclein-expressing adenovirus (Trypan blue viable cell counting, MTT assay); type: cell-based
Procedure: Viral Infection: Viral infection and MTT assay in SH-SY5Y cells: The viruses were amplified and purified according to the published procedure. SH-SY5Y cells were grown on 100 mm petri-dishes and induced with 100 nM retinoic acid for 3-5 days before the virus infection with M.I.O at 75. Viruses were diluted with DPBS to desired M.I.O. After four hours of incubation, 10 ml growth medium was added. On the second day, cells were splitted into 96-well plates and treated with compounds for next 48 hours. The growth medium in each well was replaced with growth medium with 5 ug/ml MTT. Medium was removed after three hours incubation, and 200 ul isopropyl (0.04N HCl) was added into each well. The signal was read at 570 nm.
Viable cell counting: At stated time poins, SH-SY5Y cells were trypsinized with 100 ul trypsin-EDTA for 1 minute and neutralized with 400 ul growth medium. Cell suspension was made up by mixing 0.2 ml of cells in growth medium, 0.3 ml of HBSS and 0.5 ml of 0.4% Trypan Blue solution. Viable cell numbers were counted by standard cell counting chamber.
Since α-synuclein neurotoxicity is dose-dependent, it follows that accumulation of α-synuclein, caused by UCH-L1 farnesylation, should promote its toxicity. […] These cells express high endogenous levels of UCH-L1. […] The unit of y-axis is 10^5 /ml. (F) Cell viability was assessed by the amount of metabolic activity using MTT assay. […]

[4] = system: α-synuclein; assay: α-synuclein degradation assay in transfected COS-7 cells (quantitative Western blotting); type: cell-based; conditions: COS-7 cells
Text: Plasmids: C220S cDNA was generated by PCR site-specific mutagenesis. For the PCR, the 5′ primer is uchforw SEQ ID NO: 1 ([…]), and 3′ primer is uchc220s SEQ ID NO:2 (CTAAGA […]). Wt UCH-L1 served as the template. The PCR fragment was inserted into pcDNA vector. For S18YC220S mutant, S18Y UCH-L1 served as the template in PCR. For the FLAG tagged UCH-L1, the 5′ primer is FLAGuchforw SEQ ID NO: 3 ([…] CGATGGAG), and the 3′ primer is uchrev SEQ ID NO: 4 ([…]). Wt UCH-L1 or C220S served as the template. PCR fragment was purified and inserted into pcDNA vector. For the FLAG tagged UCH-L3, the 5′ primer is L3HindIII SEQ ID NO: 5 (CTAAAGCTTATGGACTAC […]), the 3′primer is L3XhoISAA SEQ ID NO: 6 ([…]). […] After 24 hours of incubation, the cells were lysed with Tris buffer (50 mM Tris, 2% SDS, 0.1% NP-40), and subjected to SDS-PAGE, followed by quantitative Western blotting.
(§1) Western Blotting: Following transfer of SDS gels onto NC membrane, all membranes were blocked with 5% non-fat milk in TBST (50 mM Tris-HCl pH7.4, 150 mM NaCl, 0.1% Tween 20), and incubated with primary antibody overnight with 1% BSA in TBST, washed three times with TBST, and incubated with horseradish peroxidase-conjugated secondary antibody for 1 hour (Promega). Bound antibodies were detected using enhanced chemiluminascence (NEM). […]

[5] = system: UCH-L1; assay: Membrane bound and cytosolic UCH-L1 in SH-SY5Y cells (2D electrophoresis, Western blotting); type: cell-based; conditions: compared to DMSO
Procedure: 2D electrophoresis: For the isolation of total cellular protein, cultured SH-SY5Y cells maintained as described above were rinsed with ice-cold PBS. Cells were lysed in 1 ml dSDS buffer (50 mM Tris-HCl, pH 8.0 0.1% SDS) supplemented with protease inhibitor cocktail. Lysates were boiled for 3 min, and were treated with Dnase and Rnase as described. Lysates were precipitated with ice-cold acetone for at least 2 hours, and pellets were resuspended in 2D sample buffer (8M urea, 0.5% CHAPS, 0.2% DTT, 0.5% IPG buffer, 0.002% bromophenol blue). 2D electrophoresis was carried out according to manufacture's protocol (Amersham Life Science). 7 cm pH 4-7 strips were used. For SH-SY5Y membrane fraction, culture SH-SY5Y cells were rinsed with cold PBS and harvested with lysis buffer (50 mM Tris-HCl, pH 8.0, 1 mM ZnAc2, 250 mM sucrose). Lysate was passed through 25G needles for several times and spun at 1000 g for 5 min. […]
as §1

[6] = system: primary dopaminergic cultures; assay: α-synuclein toxicity in primary dopaminergic cultures; type: cell-based
[7] = system: farnesylated UCH-L1; assay: Quantitative Western Blot of farnesylated UCH-L1 in cortex membrane fraction of α-synuclein transgenic mice; type: in vivo; conditions: 45 mg/kg twice a day, 30 days
Procedure: (§2) Farnesyl transferase inhibitors Zarnestra and OSI-754 were administered to mice of the α-synuclein transgenic line described in Masliah et al. (Masliah et al. “Dopaminergic loss and inclusion body formation in alpha-synuclein mice: implications for neurodegenerative disorders” Science 287(5456):1265-69, 2000; incorporated herein by reference). Animals from this line have α-synuclein neuronal inclusions in the cortex, hippocampus, and the olfactory bulb (Masliah et al. “Dopaminergic loss and inclusion body formation in alpha-synuclein mice: implications for neurodegenerative disorders” Science 287(5456):1265-69, 2000; incorporated herein by reference). Transgenic mice were orally administered either FTI in 20% cyclodextrin solution or the same volume of vehicle alone twice a day for 30 or 90 days. In some cases, non-transgenic mice also received vehicle twice a day for 30 to 90 days. At the end of treatment, mice were sacrificed, and the brains removed and hemisected. One hemisphere of each was fixed in 4% paraformaldehyde/PBS (pH 7.4), cryoperserved, then sectioned for histology. […]
Farnesylated UCH-L1 in the cortex is contained in the membrane fraction. The amount of UCH-L1 was determined by quantitative Western Blot.
Total α-synuclein levels were analyzed by a sandwich ELISA assay. […] The amount of farnesylated UCH-L1 was determined by quantitative Western Blot, then normalized to actin.

[8] = system: α-synuclein; assay: Immunostaining for human α-synuclein in brain sections of α-synuclein transgenic mice; type: in vivo; conditions: 90 days, vs vehicle
Procedure: (§3) Farnesyl transferase inhibitors Zarnestra and OSI-754 were administered to mice of the α-synuclein transgenic line described in Masliah et al. (Masliah et al. “Dopaminergic loss and inclusion body formation in alpha-synuclein mice: implications for neurodegenerative disorders” Science 287(5456):1265-69, 2000; incorporated herein by reference). Animals from this line have α-synuclein neuronal inclusions in the cortex, hippocampus, and the olfactory bulb (Masliah et al. “Dopaminergic loss and inclusion body formation in alpha-synuclein mice: implications for neurodegenerative disorders” Science 287(5456):1265-69, 2000; incorporated herein by reference). Transgenic mice were orally administered either FTI in 20% cyclodextrin solution or the same volume of vehicle alone twice a day for 30 or 90 days. In some cases, non-transgenic mice also received vehicle twice a day for 30 to 90 days. At the end of treatment, mice were sacrificed, and the brains removed and hemisected. One hemisphere of each was fixed in 4% paraformaldehyde/PBS (pH 7.4), cryoperserved, then sectioned for histology. The other hemisphere was subdivided into four brain regions, including the cortex and hippocampus, that were homogenized and processed into cytoplasmic and membrane fractions.
Formation of α-synuclein inclusions in the cortex and hippocampus was probed by immunostaining with an antibody for human α-synuclein. Cells positive for human α-synuclein were quantified. […] These regions were also analyzed for ubiquitin-immunoreactive inclusions and by the Campbell Switzer method of silver staining. Ubiquitin is known to be a constituent of Lewy Bodies and in the α-synculein inclusions found in the transgenic mouse line used in the study (Masliah et al. “Dopaminergic loss and inclusion body formation in alpha-synuclein mice: implications for neurodegenerative disorders” Science 287(5456):1265-69, 2000; incorporated herein by reference). […] Campbell-Switzer staining is a general marker of Lewy Body type inclusions (Uchihara et al. “Silver stainings distinguish Lewy bodies and glial cytoplasmic inclusions: comparison between Gallyas-Braak and Campbell-Switzer methods” Acta Neuropathol. (Berl.) 110(3):255-60, 2005; incorporated herein by reference).

[9] = system: α-synuclein; assay: Sandwich ELISA of total α-synuclein in brain fractions of α-synuclein transgenic mice; type: in vivo; conditions: vs vehicle
Procedure: as §3
Total α-synuclein levels were analyzed by a sandwich ELISA assay similar to one previously described (El-Agnaf et al. “Detection of oligomeric forms of alpha-synuclein protein in human plasma as a potential biomarker for Parkinson's disease” FASEB J. 20(3):419-25, 2006; incorporated herein by reference). In the cortex of vehicle treated animals, α-synuclein protein levels in the α-synuclein transgenic line are greater than in non-transgenic mice in both cytoplasmic (FIG. 10) and membrane fractions (FIG. 11).

[10] = system: Neuronal Specific Nuclear Protein (NeuN); assay: NeuN staining of cortex and hippocampus of α-synuclein transgenic mice; type: in vivo; conditions: 90 days of treatment
Procedure: as §2
Formation of α-synucleininclusions in the cortex and hippocampus was probed by immunostaining with an antibody for human α-synuclein. Cells positive for human α-synuclein were quantified. […]

[11] = cortex, 45 mg/kg twice a day, 30 days

SMILES: COC(=O)[C@H](CCSC)NC(=O)c1ccc(NC[C@@H](N)CS)cc1-c1ccccc1 [FTI-277]
- amount of α-synuclein [1]: reducing the amount of α-synuclein accumulation; also recorded: reduced the amount of α-synuclein
- total amount of UCH-L1 [2]: reduced the total amount of UCH-L1
- rate of turnover of UCH-L1 ([2]; pulse-chase experiment not shown): increased its rate of turnover
- neuroprotective effect of FTI-277 on co-administration of the small-molecule UCH-L1 inhibitor ([3]; SH-SY5Y cells infected with α-synuclein adenovirus, data not shown): eliminated
- α-synuclein toxicity / loss of cells ([3]; neuronally differentiated SH-SY5Y cells infected with α-synuclein adenovirus): inhibits synuclein toxicity; also recorded: rescued α-synuclein toxicity; also recorded: significantly decreased loss of cells
- synuclein level [4]: lowers synuclein level
- amount of cytosolic UCH-L1 [5]: without affecting
- amount of membrane bound UCH-L1 [5]: significant decrease; also recorded: decreased the amount of the membrane-associated species
- α-synuclein toxicity [6]: inhibit α-synuclein toxicity

SMILES: C#Cc1cccc(-c2cc(=O)n(C)c3ccc(C(O)(c4ccc(Cl)cc4)c4cncn4C)cc23)c1 (stereo not drawn) [OSI-754]
- amount of farnesylated UCH-L1, normalized to actin [7]: decreased the amount of farnesylated UCH-L1
- α-synuclein-positive cells per mm^2 ([8]; cortex, 9 mg/kg twice a day): fewer
- α-synuclein-positive cells per mm^2 ([8]; cortex, 45 mg/kg twice a day): fewer
- α-synuclein-positive cells per mm^2 ([8]; hippocampus, 9 mg/kg twice a day): fewer
- α-synuclein-positive cells per mm^2 ([8]; hippocampus, 45 mg/kg twice a day): fewer
- α-synuclein protein levels, cytoplasmic fraction ([9]; cortex, 9 mg/kg twice a day, 90 days): lower α-synuclein protein levels
- α-synuclein protein levels, cytoplasmic fraction [9, 11]: lower α-synuclein protein levels
- α-synuclein protein levels, membrane fraction [9, 11]: lower α-synuclein protein levels
- α-synuclein protein levels, cytoplasmic fraction ([9]; cortex, 45 mg/kg twice a day, 90 days): lower α-synuclein protein levels
- α-synuclein protein levels, membrane fraction ([9]; hippocampus, 9 mg/kg twice a day, 90 days): lower α-synuclein protein levels
- α-synuclein protein levels, membrane fraction ([9]; hippocampus, 45 mg/kg twice a day, 90 days): lower α-synuclein protein levels
- neuronal morphology or density (NeuN staining) [10]: did not affect neuronal morphology or density
